{"source": "patent US6486195B1", "about": "“Thermodynamically stable crystal form of 4″-deoxy-4″-epi-methylamino avermectin B1a/B1b benzoic acid salt and processes for its preparation” (Merck & Co., Inc., priority 1993, dated 2002)", "key": {"[1]": {"experiment": "thermodynamic stability of the crystalline forms", "type": "physicochemical", "conditions": "among the four crystalline forms A, B, C and D"}, "[2]": {"experiment": "hygroscopicity of the crystal forms", "type": "physicochemical", "conditions": "compared with the other crystal forms (A, C, D)"}}}
{"substance": "4″-deoxy-4″-epi-methylamino avermectin B1a/B1b, benzoic acid salt, hemihydrate [Type B]", "values": [{"measurement": "thermodynamic stability of crystalline form", "setting": "[1]", "value": "most thermodynamically stable"}, {"measurement": "hygroscopicity", "setting": "[2]", "value": "significantly less hygroscopic"}]}
